Data on one compound can be found in patent publication US10766940B2, “Brain penetrant amylin receptor based peptides for Alzheimer's disease” (The Governors of the University of Alberta, priority 2016, dated 2020).

The test system of this test is APP, CTR, RAMP3, synapsin 1, synaptophysin, Iba1 in TgCRND8 mice brains. In words: Western blot of brain homogenates after 5 months icv AC253. In kind it is in vivo, mouse. How it is done: A microcannula was stereotaxically inserted into the right cerebral ventricle (0.12 right lateral and 0.06 posterior to bregma, 3 mm deep) of isofluorane-anesthetized mice, and connected to an osmotic pump (Alzet; model 2004) implanted subcutaneously on the back of the mouse. The pump infused a solution of either aCSF or AC253 in aCSF into the ventricle at a rate of […] to yield an estimated concentration of 1 μM AC253 in the mouse CSF at equilibrium based upon the known CSF dynamics in the mouse brain (Di Pardo et al., 2012). The pump reservoir was replaced every 28 days for a total of 5-6 months. Animals were monitored on a daily basis for signs of treatment-related toxicity, such as poor grooming, lethargy, loss of bodyweight, and abnormal behavior. After completion of medication and behavioral tests, all mice were killed with an overdose of isoflourane anesthetic, perfused transcardially with saline, and the brains were harvested. The left hemisphere per animal was frozen for biochemical analysis (Western blot, ELISA), and the right hemisphere retained for histological analysis.
Frozen brain tissues were homogenized in cold RIPA buffer with protease inhibitors and proteins were isolated and measured using BCA assay (BioRad, Mississauga, ON, Canada). Proteins were loaded at 50 μg per lane on a 12% polyacrylamide gel for CTR, RAMP3, NeuN, synapsin1, phospho-synapsin, and Iba1, or 4-20% polyacrylamide gradient gel (BioRad) for APP. Proteins were transferred to nitrocellulose membrane, and blocked with LiCOR blocking buffer. Blots were incubated with primary antibodies overnight at 4° C. on a shaker. Primary antibody used for CTR (1:1000 rabbit; Thermo Scientific), RAMP3 (1:1000 rabbit; Santa Cruz Biotechnology), 6E10 for APP (1:5000 mouse; 6E10; Covance), NeuN (1:1000, rabbit, Abcam), synapsin-1 (1:1000 rabbit, Abcam), synaptophysin (1:1000, rabbit, Abcam), phosphosynapsin (1:1000, rabbit, Abcam), Iba1 (1:1000, rabbit, Wako), β-tubulin (1:1000, rabbit, Cell Signaling Technology, Inc.) and β-actin (1:10000 mouse, Sigma-Aldrich). IRDye 800CW goat anti-rabbit and IRDye 680CW goat anti-mouse were used as secondary antibodies. Blots were imaged using LiCor Odyssey image system.
(A western blot detects proteins with antibodies after separation by electrophoresis.)

Take `CC(C)C[C@H](NC(=O)[C@H](CCCNC(=N)N)NC(=O)CNC(=O)[C@@H](N)CC(C)C)C(=O)N[C@@H](CO)C(=O)N[C@@H](CCC(N)=O)C(=O)N[C@@H](CCC(=O)O)C(=O)N[C@@H](CC(C)C)C(=O)N[C@@H](Cc1c[nH]cn1)C(=O)N[C@@H](CCCNC(=N)N)C(=O)N[C@@H](CC(C)C)C(=O)N[C@@H](CCC(N)=O)C(=O)N[C@H](C(=O)N[C@@H](Cc1ccc(O)cc1)C(=O)N1CCC[C@H]1C(=O)N[C@@H](CCCNC(=N)N)C(=O)N[C@H](C(=O)N[C@@H](CC(N)=O)C(=O)N[C@H](C(=O)NCC(=O)N[C@@H](CO)C(=O)N[C@@H](CC(N)=O)C(=O)N[C@H](C(=O)N[C@@H](Cc1ccc(O)cc1)C(N)=O)[C@@H](C)O)[C@@H](C)O)[C@@H](C)O)[C@@H](C)O` [AC253]: where the note is “Tg AC253 vs Tg CSF”, the “amylin receptor (CTR, RAMP3 proteins) expression levels in the brain” value is “no noticeable difference”. Under “Tg AC253 vs Tg CSF controls”, the “increase in expression level of synapsin 1” value is 40% and the “increase in expression level of synaptophysin” value is recorded as 30%. In addition, where the note is “Tg AC253 vs Tg CSF, 5 months icv”, the “APP expression (Western blot)” value was “no significant difference”. Also, for the setting “Tg-AC253 vs Tg-CSF”, the “reduction of expression levels of Iba-1 (microglial marker)” value was 50%.
